Test results reported in paper PMC8344375 (Biochemistry, 2015).
Several values for one entry are separate records, joined by “and”; a condition that tells them apart may be missing. Equal entries are not always repeated. Where two headings read alike, the source gives them in different places.

Experiments:
[1] = system: wt Cb H-NOX; format: binding
[2] = system: wt Tt H-NOX; format: binding
[3] = system: wt Cb H-NOX; conditions: cited from earlier work
[4] = system: wt Tt H-NOX; conditions: cited from earlier work
[5] = system: 6c NO-heme-His complex in wt Cb H-NOX; format: binding, Clostridium botulinum
[6] = system: sGC; conditions: cited from earlier work

Molecule: [C-]#[O+] [CO, Carbon monoxide]
- koff (CO) [1]: 1.0 s⁻¹
- kon (CO) [1]: 1.5e+06 M⁻¹ s⁻¹
- Kd ([1]; read-out: KD (CO)): 670 nM
- koff (CO) [2]: 0.5 s⁻¹
- kon (CO) [2]: 3.3e+06 M⁻¹ s⁻¹
- Kd ([2]; read-out: KD (CO)): 160 nM
- kon (CO) [3]: 1.5 × 10^6d M^−1 s^−1
- koff (CO) [4]: 3.56^g s^−1
- kon (CO) [4]: 4.1e+06 g/M/s and 2.18e+06 g/M/s

Molecule: O=O [O2, oxygen]
- Kd ([1]; read-out: KD (O2)): 53000 nM
- koff (O2) [2]: 1.9 s⁻¹
- kon (O2) [2]: 4.3e+07 M⁻¹ s⁻¹
- Kd ([2]; read-out: KD (O2)): 44 nM
- koff (O2) [4]: 1.2^f s^−1 and 1.2^e s^−1
- kon (O2) [4]: 2.5 × 10^7f M^−1 s^−1 and 1.36 × 10^7e M^−1 s^−1
- Kd ([4]; read-out: KD (O2)): 0.048 µM and 0.0897 µM

Molecule: nitric oxide [NO]
- NO dissociation rate, fast phase [1]: 0.011 s⁻¹
- koff (NO) [1]: 0.012 s⁻¹
- koff of 5c NO-heme complex [1]: 1.1 × 10^−3a s^−1
- kon (NO) [1]: 1.5e+08 M⁻¹ s⁻¹
- Kd ([1]; read-out: KD (NO)): 0.08 nM
- koff (NO) [2]: 0.0034 s⁻¹
- kon (NO) [2]: 1.5e+08 M⁻¹ s⁻¹
- Kd ([2]; read-out: KD (NO)): 0.023 nM
- k2 (quaternary complex to 5c NO-heme) [5]: ~ 790 s^−1
- Kd ([5]; read-out: KD (reaction I, NO binding to 6c NO-heme-His)): ~570 µM
- Kd ([5]; read-out: KD of reaction I): 1100 µM
- koff (NO) [3]: 3 × 10^−6c s^−1
- kon (NO) [3]: ~ 10^8c M^−1 s^−1
- koff (NO) [4]: 0.00056 s⁻¹
- koff for 5c NO-heme [6]: 0.0006 s⁻¹
- koff(NO) of 6c NO-sGC complex [6]: 27 s⁻¹
- Kd ([6]; read-out: KD(NO)(6c)): 0.054 µM
